Experimental findings from PMC11259170, “Small-molecule probe for IBD risk variant GPR65 I231L alters cytokine signaling networks through positive allosteric modulation” (Science Advances, 2024) are described below.

The subject of data set [1] is WT HeLa cells expressing hGPR65. Kind of data set: Cytotoxicity assay (CellTiter-Glo, 72 hours). Type of data set: cell-based, human. The protocol:
WT HeLa cells expressing hGPR65 were seeded at 2000 cells per well in 384-well plates. Compounds were tested in 10-point dose, starting at 50 μM. Cells were incubated with compounds for 72 hours at 37°C, 5% CO2. Cytotoxicity was measured using CellTiter-Glo Luminescent Cell Viability Assay (Promega, G7572) according to the manufacturer’s protocol. Luminescence measurements were made on BMG Labtech PHERAstar FSX. Data analysis was performed using GraphPad Prism.

For data set [2], the system named is GPR65 KO HeLa cells + pLX empty vector. Kind of data set: cAMP detection, GPR65 KO HeLa + empty pLX vector (null control). The data set is classed as cell-based, human. The following applies: Homo sapiens, 0.5 h; HeLa GPR65 KO + pLX, pH 7.1, 30 min, normalized to DMSO and 100 μM forskolin. A digest of the protocol:
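CRISPR GPR65-KO HeLa cells, lentivirally reconstituted with hGPR65, mGPR65 or empty vector, were treated at 5000 cells/well in HBSS/Hepes with 0.5 mM IBMX at pH 7.1. Compounds were tested at 25 μM (primary screen) or 195 nM–100 μM (dose curves) for 30 min at RT. cAMP was read by Lance Ultra TR-FRET (665/615 nm) after 1 hour.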

Data set [3] relates to GFP-expressing HeLa cells. Put plainly: cAMP detection in HeLa expression cell line, GFP control. The data set is classed as cell-based, human. The following applies: Homo sapiens, HeLa, 1st GFP column pair, NA = no activity. An outline of the steps: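 HeLa cells stably expressing C-terminally V5-tagged receptor or GFP (lentiviral, puromycin 3 μg/ml) stimulated at 1500 cells per well for 30 min at RT with compound (10 mM DMSO stock) in stimulation buffer at pH 7.2. cAMP detected by Lance Ultra TR-FRET after lysis and 1 h detection, excitation 337 nm, emission 620/665 nm.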

Data set [4] has as its system GPR65 WT mouse splenocytes. Put plainly: cAMP detection in GPR65 WT mouse splenocytes. The data set is classed as cell-based. The following applies: 0 to 50 μM, pH 7.2, GPR65-dependent. The procedure: cAMP was measured in cells using the Lance Ultra cAMP Kit. Spleens were harvested from GPR65 WT and GPR65 KO mice, homogenized and passed through a 70-μm cell strainer into harvest buffer [PBS, 0.5% bovine serum albumin (BSA), and 2 mM EDTA]. Cells were then centrifuged, washed with harvest buffer, and resuspended in red blood cell lysis buffer for 10 min at RT. Cells were counted and resuspended in assay buffer (25-ml DMEM, 0.5-ml 7.5% sodium bicarbonate, and 333-μl 7.5% BSA stabilizer) and adjusted to pH 7.2 with 1 M NaOH. Splenocytes were added to a white opaque OptiPlate 384-well microplates at a density of 100,000 cells per well in 20 μl. Compounds were added into the wells using a pin transfer tool, and plates were incubated at 37°C, 5% CO2 for 40 min. Each detection reagent (5 μl) was added to the plate and incubated at RT in the dark for 1 hour. Eu-cAMP tracer and FRET emissions were read using a PerkinElmer EnVision Multimode plate reader (ENVISION21040010). Data analysis was performed using GraphPad Prism.

pEC50: −log10 of the molar value.

`Cc1ccc(NC(=O)c2cnn3c(O)cc(-c4ccc(COC(C)C)cc4)nc23)nc1` [BRD5075, O=C(NC1=NC=C(C)C=C1)C2=C3N(N=C2)C(O)=CC(C4=CC=C(COC(C)C)C=C4)=N3]: the cell viability result in data set [1] (50 μM, 72 hours) is on record as “slight decrease in cell viability”. The cytotoxicity result in data set [1] (72-hour incubation, 0-50 μM) is on record as “not cytotoxic”.
Consider `CN1N=C(SCc2ccc(Cl)cc2Cl)Sc2c1cnn(C)c2=O` [BTB09089, reference compound], for which the pEC50 was < 4.00 in data set [2] and 6.71 in data set [3]. Further, the Emax in data set [3] (relative to 100uM forskolin (100%) and DMSO (0%), read-out: GFP Max Activity %) came out at 1.95%. The “cAMP production in mouse splenocytes, compared” value in data set [4] was “induced higher cAMP production than BRD2813”.
